Measured values from publication PMC4581228, “Membrane Affinity of Platensimycin and Its Dialkylamine Analogs” (International Journal of Molecular Sciences, 2015).

Tests used:
[1] = test system: WT MscS in the cytoplasmic membrane of E. coli; assay: Patch-clamp of WT MscS in excised spheroplast patches (activation midpoint shift); settings: cytoplasmic addition of 0.6 mM, six independent patches
Excerpt: We explored the A98S gain-of-function mutant of MscS and found it to be a more suitable sensor. In pressure ramp experiments this mutant activates earlier, but apparently has the same tension dependency of inactivation as WT [20]. […] The serine-for-alanine substitution hydrophilizes the outer portion of the hydrophobic pore. As a result, the remaining hydrophobic region is localized to the cytoplasmic portion of the pore, placing the gate more asymmetrically relative to the mid-plane of the bilayer. […] We tested this mutant against WT with a cytoplasmic addition of 0.6 mM paraben, which has been characterized previously. The typical activation curves (open probability vs. pipette pressure) measured with pipettes of equal size for the two channels are shown in Figure 2. Not only is the absolute shift of activating pressure (p0.5) greater for A98S, but the percentage of midpoint shift relative to the original midpoint averaged for six independent patches was 41% ± 6% for the mutant vs. 14% ± 4% for WT. […]
Spheroplasts were generated as described previously. […] Membrane patches were obtained on borosilicate glass pipettes and recorded at 30 mV pipette voltage set by a microelectrode amplifier. The midpoint of activation for channels in each patch was determined at two-minute intervals for the duration of the experiment via a 1 s ramp of saturating pressure. […]

[2] = test system: A98S MscS in the cytoplasmic membrane of E. coli; assay: Patch-clamp of A98S MscS in excised spheroplast patches (activation midpoint shift); settings: A98S MscS, cytoplasmic addition of 0.6 mM, six independent patches
Experimental: A pB10b vector was used to house and express the mscS gene in the triple-knockout E. coli strain MJF465 (mscS^−, mscL^−, mscK^−). The A98S MscS mutant, generated and partially characterized previously, was chosen for its higher sensitivity to inner leaflet drug partitioning.
Spheroplasts were generated as described previously. The experimental bath solution contained 400 mM sucrose, 200 mM KCl, 50 mM MgCl2, 5 mM CaCl2, and 5 mM HEPES and was titrated to pH 7.4 with KOH. Membrane patches were obtained on borosilicate glass pipettes and recorded at 30 mV pipette voltage set by a microelectrode amplifier. The midpoint of activation for channels in each patch was determined at two-minute intervals for the duration of the experiment via a 1 s ramp of saturating pressure. Analogs of platensimycin were pre-diluted in either ethanol or bath solution and perfused into the bath to achieve the desired concentration; control injections of equivalent volumes of ethanol had no effect on the midpoint of activation. Negative pressure (suction) was applied with the HSPC-1 high speed pressure clamp apparatus from ALA Scientific. Programming of the pressure protocols and data analysis was performed with the PClamp10 suite (Axon Instr., Foster City, CA, USA). The principle of lateral pressure measurements using two experimental systems, lipid monolayers and patch-clamp, is illustrated in Figure 1.
Similarly, the bulk-membrane partitioning coefficient (Kmem) was estimated from the values of relative increase in MscS activation pressure midpoint (p0.5) measured in patch-clamp experiments at different concentrations of intercalating agents by linear fit of Δp0.5 as a function of log(Cd).

CCCCOC(=O)c1ccc(O)cc1 [paraben, butyl paraben, reference compound]
Percentage of midpoint shift relative to the original midpoint [1]: 14% ± 4% | Percentage of midpoint shift relative to the original midpoint [2]: 41% ± 6%
